Measurements reported in ChEMBL document CHEMBL1250449, “Aminoglycoside activity observed on single pre-translocation ribosome complexes” (Nat Chem Biol, 2010).
Each block holds one compound with its values, some of them ahead of it. The source made the active and inactive calls. No cut-off for these calls is given here. Numbered stars: 1 amine (or outer) side, 2 acyl side, 3 side chain; on linkers, the order of the positions; unused ones are H or OH. Bridge positions count the residues as written; N and C are the ends. Square brackets hold non-standard residues; d marks the D form. Peptide text beside a SMILES is read from it. * marks the point of attachment. X1 = NC1=N[C@@H]([C@H](N[*:1])C(=O)[*:2])C[C@H](O)N1; ΔAla(Z-3-ureido) = NC(=O)N/C=C(\N)C(=O)O; β3hOrn = NCCC[C@H](N)CC(=O)*; Dap = NC[C@H](N)C(=O)O

Experiments:
Nucleic Acid [1] = test: Binding affinity to Escherichia coli 23S rRNA H69 assessed as increase in classical-state occupancy by tRNA by […]; type: nucleic-acid assay; settings: MRE600
Escherichia coli [2] = test: Increase in hybrid-state occupancy by tRNA in ribosomal pre-translocation complex in Escherichia coli MRE600 by smFRET method in presence of 10 uM neomycin; type: functional
Escherichia coli [3] = test: Increase in classical-state occupancy by tRNA in ribosomal pre-translocation complex in Escherichia coli MRE600 by smFRET method in presence of 200 nM neomycin; type: functional, organism-based
Escherichia coli [4] = test: Increase in hybrid-state occupancy by tRNA in ribosomal pre-translocation complex in Escherichia coli MRE600 by smFRET method in presence of 20 uM neomycin; type: functional, organism-based
Nucleic Acid [5] = test: Binding affinity to Escherichia coli 16S rRNA helix 44 assessed as increase in classical-state occupancy by tRNA by […]; type: nucleic-acid assay, MRE600
Nucleic Acid [6] = test: Binding affinity to Escherichia coli 16S rRNA helix 44 assessed as classical-state occupancy by tRNA; type: nucleic-acid assay; design: concentration or dose not given beside the values; settings: MRE600
Nucleic Acid [7] = test: Binding affinity to Escherichia coli 23S rRNA assessed as increase in classical-state occupancy by tRNA at 20 uM by smFRET; type: nucleic-acid assay; settings: MRE600
Nucleic Acid [8] = test: Binding affinity to Escherichia coli 16S rRNA helix 44 assessed as tRNA translocation rate; type: nucleic-acid assay; settings: MRE600
Nucleic Acid [9] = test: Binding affinity to Escherichia coli 23S rRNA G2553C mutant assessed as increase in classical-state occupancy by tRNA at 20 uM by smFRET; type: nucleic-acid assay; settings: MRE600
[10] = target: T1, Bacterial 70S ribosome (Bacteria) (UniProt P0A7V0+P60723+P0AG67+P0A7R5+P0A7R9+P0A7S3+P0A7S9+P0AG59+P0ADZ4+P0A7T3+P0AG63+P0A7T7+P0A7U3+P0A7U7+P68679+P0A7V3+P0A7V8+P0A7W1+P02358+P02359+P0A7W7+P0A7X3+P0A7J3+P0A7J7+P0AA10+P0ADY3+P02413+P0ADY7+P0AG44+P0C018+P0A7K6+P0A7L0+P0A7L3+P0AG48+P61175+P0ADZ0+P60624+P68919+P0A7L8+P0A7M2+P0A7M6+P60422+P0AG51+P0A7N1+P0A7M9+P0A7N4+P0A7N9+P0A7P5+P0A7Q1+Q2EEQ2+P0A7Q6+P60438+P62399+P0AG55+P0A7K2); test: Binding affinity to Escherichia coli ribosomal pre-translocation complex assessed as stabilization of classical-state occupancy by tRNA at 200 uM; settings: MRE600
[11] = target: T1, Bacterial 70S ribosome (Bacteria); test: Binding affinity to Escherichia coli ribosomal pre-translocation complex assessed as decreased rate of EF-G-catalyzed translocation fraction by tRNA at 100 nM; settings: MRE600
[12] = target: T1, Bacterial 70S ribosome (Bacteria); test: Binding affinity to Escherichia coli ribosomal pre-translocation complex assessed as stabilization of hybrid-state occupancy by tRNA at <2 uM; settings: MRE600
Nucleic Acid [13] = test: Binding affinity to Escherichia coli ribosomal pre-translocation complex assessed as tRNA translocation rate at 200 uM (Rvb= 1.57+/-0.05 /sec); type: nucleic-acid assay; settings: MRE600
[14] = target: T1, Bacterial 70S ribosome (Bacteria); test: Binding affinity to Escherichia coli ribosomal pre-translocation complex assessed as decreased rate of EF-G-catalyzed translocation by tRNA at 100 nM; settings: MRE600
[15] = target: T1, Bacterial 70S ribosome (Bacteria); test: Binding affinity to Escherichia coli ribosomal pre-translocation complex assessed as stabilization of hybrid-state occupancy by tRNA at 2 uM; settings: MRE600
Nucleic Acid [16] = test: Binding affinity to Escherichia coli ribosomal pre-translocation complex assessed as classical-state occupancy by tRNA at 200 uM (Rvb= 62.4+/-1.1%); type: nucleic-acid assay; settings: MRE600
[17] = target: T1, Bacterial 70S ribosome (Bacteria); test: Binding affinity to Escherichia coli ribosomal pre-translocation complex assessed as decreased rate of EF-G-catalyzed translocation by tRNA at <2 uM; settings: MRE600
[18] = target: T1, Bacterial 70S ribosome (Bacteria); test: Binding affinity to Escherichia coli ribosomal pre-translocation complex assessed as stabilization of hybrid-state occupancy by tRNA at 100 nM; settings: MRE600
Nucleic Acid [19] = test: Binding affinity to Escherichia coli 23S rRNA assessed as stabilization of classical state occupancy by tRNA by smFRET; type: nucleic-acid assay, MRE600
Nucleic Acid [20] = test: Binding affinity to Escherichia coli 16S rRNA helix 44 assessed as increase in classical-state occupancy by tRNA at 20 nM to 200 uM by smFRET; type: nucleic-acid assay; settings: MRE600
Nucleic Acid [21] = test: Binding affinity to Escherichia coli 16S rRNA helix 44 assessed as increase in classical-state occupancy by tRNA at >=20 uM by smFRET; type: nucleic-acid assay; settings: MRE600
Escherichia coli [22] = test: Stabilization of classical-state occupancy by tRNA in ribosomal pre-translocation complex in Escherichia coli MRE600 expressing 16S A1408G and 23S G2553C rRNA mutant by smFRET; type: functional
Nucleic Acid [23] = test: Binding affinity to Escherichia coli 16S A1408G rRNA assessed as increase in classical-state occupancy by tRNA by smFRET; type: nucleic-acid assay; settings: MRE600
Nucleic Acid [24] = test: Binding affinity to Escherichia coli 16S rRNA helix 44 assessed as stabilization of classical state occupancy by tRNA by smFRET; type: nucleic-acid assay, MRE600
Nucleic Acid [25] = test: Binding affinity to Escherichia coli 16S rRNA helix 44 assessed as increase in classical-state occupancy by tRNA by smFRET; type: nucleic-acid assay; settings: MRE600, TDE = time-dependent effect
Nucleic Acid [26] = test: Binding affinity to Escherichia coli 23S rRNA G2553C mutant assessed as increase in classical-state occupancy by tRNA by smFRET; type: nucleic-acid assay; settings: MRE600
Nucleic Acid [27] = test: Binding affinity to Escherichia coli 23S rRNA assessed as decrease in classical-state occupancy by tRNA at 20 uM by smFRET; type: nucleic-acid assay; design: scale not given: the % may be the effect or the level left; settings: MRE600
Nucleic Acid [28] = test: Binding affinity to Escherichia coli 16S rRNA helix 44 assessed as increase in classical-state occupancy by tRNA at 100 nM by smFRET; type: nucleic-acid assay; settings: MRE600
Nucleic Acid [29] = test: Binding affinity to Escherichia coli 23S rRNA H69 assessed as classical-state occupancy by tRNA at 20 uM (Rvb= 62.4+/-1.1%); type: nucleic-acid assay; settings: MRE600
Nucleic Acid [30] = test: Binding affinity to Escherichia coli 16S rRNA helix 44 assessed as reduction in rate of tRNA exit from classical state at 100 nM; type: nucleic-acid assay; settings: MRE600
Nucleic Acid [31] = test: Binding affinity to Escherichia coli 16S rRNA helix 44 assessed as classical-state occupancy by tRNA at 100 nM (Rvb= 62.4+/-1.1%); type: nucleic-acid assay; settings: MRE600
Nucleic Acid [32] = test: Binding affinity to Escherichia coli 16S rRNA helix 44 assessed as reduction in rate of tRNA translocation at 100 nM; type: nucleic-acid assay; settings: MRE600
Nucleic Acid [33] = test: Binding affinity to Escherichia coli 23S rRNA H69 assessed as tRNA translocation rate at 20 uM (Rvb= 1.57+/-0.05 /sec); type: nucleic-acid assay; settings: MRE600
Nucleic Acid [34] = test: Binding affinity to Escherichia coli 16S rRNA helix 44 assessed as tRNA translocation rate at 100 nM (Rvb= 1.57+/-0.05 /sec); type: nucleic-acid assay; settings: MRE600
Nucleic Acid [35] = test: Binding affinity to Escherichia coli 16S rRNA helix 44 assessed as decrease in classical-state occupancy by tRNA at 20 uM by smFRET; type: nucleic-acid assay; design: scale not given: the % may be the effect or the level left; settings: MRE600

SMILES: COc1ccc(C[C@H](N)C(=O)N[C@H]2[C@@H](O)[C@H](n3cnc4c(N(C)C)ncnc43)O[C@@H]2CO)cc1 [PUROMYCIN]
Activity (Nucleic Acid [1]): > 1 µM
Activity (Escherichia coli [2]): 25%
Activity (Escherichia coli [3]): Active
Activity (Escherichia coli [4]): Active
EC50 (Nucleic Acid [5]): 100 nM

SMILES: NC[C@@H]1O[C@@H](O[C@H]2[C@H](O)[C@@H](O[C@H]3O[C@H](CO)[C@@H](O)[C@H](N)[C@H]3O)[C@H](N)C[C@@H]2N)[C@@H](O)[C@H](O)[C@H]1O [KANAMYCIN A]
EC50 (Nucleic Acid [19]): 300 nM
Activity (Nucleic Acid [6]): 69.6%
Activity (Nucleic Acid [7]): 8%
Activity (Nucleic Acid [20]): Dose-dependent effect
Activity (Nucleic Acid [21]): Active
Activity (Escherichia coli [22]): 10%
Activity (Nucleic Acid [23]): inactive
Activity (Nucleic Acid [8]): 0.27 s⁻¹
Activity (Nucleic Acid [9]): 25%
EC50 (Nucleic Acid [24]): 300 nM
Activity (Nucleic Acid [25]): tde
Activity (Nucleic Acid [26]): 25%

SMILES: NC[C@H]1O[C@H](O[C@H]2[C@H](O)[C@@H](O[C@H]3O[C@H](CO)[C@@H](O)[C@H](N)[C@H]3O)[C@H](N)C[C@@H]2N)[C@H](N)[C@@H](O)[C@@H]1O [BEKANAMYCIN]
EC50 (Nucleic Acid [19]): 300 nM
Activity (Nucleic Acid [6]): 69.6%
Activity (Nucleic Acid [7]): 8%
Activity (Nucleic Acid [20]): Dose-dependent effect
Activity (Nucleic Acid [21]): Active
Activity (Escherichia coli [22]): 10%
Activity (Nucleic Acid [23]): inactive
Activity (Nucleic Acid [8]): 0.27 s⁻¹
Activity (Nucleic Acid [9]): 25%
EC50 (Nucleic Acid [24]): 300 nM
Activity (Nucleic Acid [25]): tde
Activity (Nucleic Acid [26]): 25%

SMILES: CN[C@@H]1[C@@H](O)[C@@H](O[C@@H]2[C@@H](O)[C@H](O[C@H]3O[C@H]([C@@H](C)NC)CC[C@H]3N)[C@@H](N)C[C@H]2N)OC[C@]1(C)O
Activity (Nucleic Acid [6]): 67.2%
Activity (Nucleic Acid [7]): 5%
Activity (Nucleic Acid [8]): 0.42 s⁻¹
Activity (Nucleic Acid [9]): 14%

SMILES: NC[C@@H]1O[C@H](O[C@H]2[C@@H](O)[C@H](O[C@@H]3[C@@H](O)[C@H](N)C[C@H](N)[C@H]3O[C@H]3O[C@H](CO)[C@@H](O)[C@H](O)[C@H]3N)O[C@@H]2CO)[C@H](N)[C@@H](O)[C@@H]1O
Activity (Nucleic Acid [6]): 63.9%
Activity (Nucleic Acid [7]): 2%
Activity (Nucleic Acid [8]): 0.51 s⁻¹
Activity (Nucleic Acid [9]): 12%

Second part, the compound after the results:

Activity (Nucleic Acid [6]): 67.2%
Activity (Nucleic Acid [7]): 5%
Activity (Nucleic Acid [8]): 0.42 s⁻¹
Activity (Nucleic Acid [9]): 18%
SMILES: CN[C@@H]1[C@@H](O)[C@@H](O[C@@H]2[C@@H](O)[C@H](O[C@H]3O[C@H]([C@@H](C)N)CC[C@H]3N)[C@@H](N)C[C@H]2N)OC[C@]1(C)O

Activity [10]: Active
fold change (FC) [11]: 2
Activity [12]: Active
Activity (Nucleic Acid [13]): 0.04 s⁻¹
fold change (FC) [14]: 1.5
Activity [15]: Active
Activity (Nucleic Acid [16]): 46.8%
Activity [17]: Active
Activity [18]: 10%
SMILES: NCCC[C@H](N)CC(=O)N[C@H]1CNC(=O)[C@H]([C@H]2C[C@H](O)NC(N)=N2)NC(=O)/C(=C/NC(N)=O)NC(=O)[C@H](CO)NC(=O)[C@H](CO)NC1=O (β3hOrn-[Dap]SS[ΔAla(Z-3-ureido)][X1]; lactam 1-C)

Activity (Nucleic Acid [27]): 10%
Activity (Nucleic Acid [28]): 6%
Activity (Nucleic Acid [29]): 52%
fold change (FC) (Nucleic Acid [30]): 1.5
Activity (Nucleic Acid [31]): 70.3%
fold change (FC) (Nucleic Acid [32]): 3
Activity (Nucleic Acid [33]): 0.06 s⁻¹
Activity (Nucleic Acid [34]): 0.31 s⁻¹
Activity (Nucleic Acid [35]): 10%
SMILES: NC[C@@H]1O[C@H](O[C@H]2[C@@H](O)[C@H](O[C@@H]3[C@@H](O)[C@H](N)C[C@H](N)[C@H]3O[C@H]3O[C@H](CN)[C@@H](O)[C@H](O)[C@H]3N)O[C@@H]2CO)[C@H](N)[C@@H](O)[C@@H]1O
